Measurements reported in paper PMC3196554 (Chemical research in toxicology, 2010).
Read-outs that look alike come from different tables or passages of the source.

How the values were obtained:
[1] = Acid hydrolysis of conjugates; assay type: physicochemical; settings: 50% (v/v) glacial acetic acid or 1 N HCl, 80 °C for 8 h
[2] = human, in vivo
[3] = for Amount present in urine samples: urine after meat consumption, LOQ ~50 pg/mL; for Amount in urine collected for 10 h after consumption of cooked beef: Mean ± SD of 3 independent measurements; for % Dose in urine collected for 10 h after consumption of cooked beef: metabolites as % of dose of parent MeIQx or PhIP; for Amount in urine, Overall mean: mean of 3 days
[4] = tested on: P450 1A2; settings: human liver microsomes, cited from earlier work
[5] = cited from earlier work
[6] = tested on: P450 1A2; settings: subjects given furafylline prior to cooked beef; cited from earlier work
[7] = tested on: human liver UGTs; settings: human liver microsomes fortified with UDPGA; cited from earlier work

Structure (SMILES)	Behaviour under acid hydrolysis conditions [1]	Amount in urine collected for 10 h after consumption of cooked beef ([3]; Subject S-001) [ng]	% Dose in urine collected for 10 h after consumption of cooked beef ([3]; Subject S-001) [% Dose]	Amount in urine collected for 10 h after consumption of cooked beef ([3]; Subject S-003) [ng]	% Dose in urine collected for 10 h after consumption of cooked beef ([3]; Subject S-003) [% Dose]	Amount in urine collected for 10 h after consumption of cooked beef ([3]; Subject S-005) [ng]	% Dose in urine collected for 10 h after consumption of cooked beef ([3]; Subject S-005) [% Dose]	Amount in urine collected for 10 h after consumption of cooked beef ([3]; Subject S-008) [ng]	% Dose in urine collected for 10 h after consumption of cooked beef ([3]; Subject S-008) [% Dose]	Amount in urine collected for 10 h after consumption of cooked beef ([3]; Subject S-009) [ng]	% Dose in urine collected for 10 h after consumption of cooked beef ([3]; Subject S-009) [% Dose]	Amount in urine collected for 10 h after consumption of cooked beef ([3]; Subject S-012) [ng]	% Dose in urine collected for 10 h after consumption of cooked beef ([3]; Subject S-012) [% Dose]	Amount in urine collected for 10 h after consumption of cooked beef ([3]; Subject S-013) [ng]	% Dose in urine collected for 10 h after consumption of cooked beef ([3]; Subject S-013) [% Dose]	Amount in urine collected for 10 h after consumption of cooked beef ([3]; Subject S-014) [ng]	% Dose in urine collected for 10 h after consumption of cooked beef ([3]; Subject S-014) [% Dose]	Amount in urine collected for 10 h after consumption of cooked beef ([3]; Subject S-015) [ng]	% Dose in urine collected for 10 h after consumption of cooked beef ([3]; Subject S-015) [% Dose]	Amount in urine collected for 10 h after consumption of cooked beef ([3]; Subject S-020) [ng]	further results
Cc1cnc2ccc3c(nc(NS(=O)(=O)O)n3C)c2n1 [MeIQx-N^2-SO3H, N^2-(3,8-dimethylimidazo[4,5-f]quinoxalin-2-yl)-sulfamic acid]	quantitatively hydrolyzed to the parent amines																				
Cc1cnc2cc3nc(N)n(C)c3cc2n1 [MeIgQx, 2-amino-1,7-dimethylimidazo[4,5-g]quinoxaline]																					Increase in amount in urine following acid hydrolysis [2]: up to 5 fold
Cn1c(N[C@@H]2O[C@H](C(=O)O)[C@@H](O)[C@H](O)[C@H]2O)nc2ncc(-c3ccccc3)cc21 [PhIP-N^2-Gl, N^2-(ß-1-glucosidurony1)-2-amino-1-methy1-6-phenylimidazo[4,5-b]pyridine]	quantitatively hydrolyzed to the parent amines																				Amount present in urine samples [3]: ~ 50 pg/mL
Cc1cnc2ccc3c(nc(N[C@@H]4O[C@H](C(=O)O)[C@@H](O)[C@H](O)[C@H]4O)n3C)c2n1 [MeIQx-N^2-Gl, N^2-(ß-1-glucosiduronyl)-2-amino-3,8-dimethylimidazo[4,5-f]quinoxaline]	quantitatively hydrolyzed to the parent amines																				
Cn1c(=NO)n([C@@H]2O[C@H](C(=O)O)[C@@H](O)[C@H](O)[C@H]2O)c2ncc(-c3ccccc3)cc21 [HONH-PhIP-N3-GI, N3-(ß-1-glucosidurony1)-N-hydroxy-2-amino-1-methy1-6-phenylimidazo[4,5-b]pyridine]		238 ± 7.4	2.6	189 ± 10.6	2.1	176 ± 4.2	1.9	222 ± 10.0	2.5	191 ± 5.5	2.1	319 ± 6.0	3.5	179 ± 7.0	2.0	89.5 ± 3.3	1.0	216 ± 12.0	2.4	253 ± 4.9	% Dose in urine collected for 10 h after consumption of cooked beef ([3]; Subject S-020): 2.8 % Dose
Cc1cnc2ccc3c(nc(N)n3C)c2n1 [MeIQx, 2-amino-3,8-dimethylimidazo[4,5-f]quinoxaline]		80.3 ± 2.7	8.7	26.7 ± 1.6	2.9	32.4 ± 1.5	3.5	33.8 ± 1.3	3.7	45.7 ± 1.4	5.0	48.3 ± 1.9	5.2	60.9 ± 3.2	6.6	20.6 ± 0.9	2.2	39.2 ± 2.0	4.2	51.5 ± 2.2	Vmax, oxidation of the 8-methyl group to form IQx-8-CH2OH [4]: 0.1 nmol/min/mg protein; Vmax, production of HONH-MeIQx [4]: 3.9 nmol/ min/mg of protein; Km ([4]; read-out: Km, oxidation of the 8-methyl group to form IQx-8-CH2OH): 3.1 µM; Km ([4]; read-out: Km, production of HONH-MeIQx): 15 µM; pKa [5]: 5.94; Amount in urine, Overall mean ([3]; Subject 9): 22.1 pg/mL; Amount in urine, Overall mean ([3]; Subject 14): 10.4 pg/mL; Amount in urine, Overall mean ([3]; Subject 20): 29.2 pg/mL; % Dose in urine collected for 10 h after consumption of cooked beef ([3]; Subject S-020): 5.6 % Dose; Share of elimination accounted for by P450 1A2 [6]: 90%
Cn1c(N(O)[C@@H]2O[C@H](C(=O)O)[C@@H](O)[C@H](O)[C@H]2O)nc2ncc(-c3ccccc3)cc21 [HONH-PhIP-N^2-GI, N^2-(ß-1-glucosidurony1)-N-hydroxy-2-amino-1-methy1-6-phenylimidazo[4,5-b]pyridine]		2201 ± 37.3	24.3	2692 ± 121	29.7	2112 ± 88.5	23.3	2198 ± 88.2	24.3	2009 ± 31.0	22.2	2621 ± 86.0	29.0	1848 ± 25.6	20.4	1274 ± 29.0	14.1	2067 ± 103	22.8	2223 ± 15.6	% Dose in urine collected for 10 h after consumption of cooked beef ([3]; Subject S-020): 24.6 % Dose
Cn1c(N)nc2ncc(-c3ccc(O)cc3)cc21 [4'-HO-PhIP, 2-amino-1-methyl-6-(4′-hydroxy)-phenylimidazo[4,5-b]pyridine]		20.1 ± 9.9	0.4	35.0 ± 3.4	0.7	41.7 ± 0.9	0.8	27.0 ± 3.8	0.5	25.2 ± 2.8	0.5	50.1 ± 2.8	1.0	37.2 ± 5.2	0.7	18.4 ± 1.2	0.4	18.3 ± 2.9	0.3	38.3 ± 2.5	% Dose in urine collected for 10 h after consumption of cooked beef ([3]; Subject S-020): 0.7 % Dose
Cn1c(=N)n([C@@H]2O[C@H](C(=O)O)[C@@H](O)[C@H](O)[C@H]2O)c2ncc(-c3ccccc3)cc21 [PhIP-N3-Gl, N3-(ß-1-glucosidurony1)-2-amino-1-methy1-6-phenylimidazo[4,5-b]pyridine]	stable																				Proportion of the conjugate that underwent hydrolysis [1]: < 5%; Amount formed relative to PhIP-N^2-Gl [7]: 10 fold; Amount present in urine samples [3]: below the LOQ
